Data as given in patent publication US6156724A, “Uses of didemnins as immunomodulating agents” (priority 1998, dated 2000).
pIC50: −log10 of the molar value. Where two headings read alike, the source gives them in different places. Numbered stars: 1 amine (or outer) side, 2 acyl side, 3 side chain; on linkers, the order of the positions; unused ones are H or OH. Bridge positions count the residues as written; N and C are the ends. Square brackets hold non-standard residues; d marks the D form. Peptide text beside a SMILES is read from it. X1 = CC[C@H](C)[C@@H](N[*:1])[C@@H](O)CC(=O)O[C@H](C(=O)[C@H](C)C(=O)[*:2])C(C)C; NMeY = CN[C@@H](Cc1ccc(O)cc1)C(=O)O; dNMeL = CN[C@H](CC(C)C)C(=O)O; pGlu = O=C1CC[C@@H](C(=O)O)N1; Lac = C[C@H](O)C(=O)O

Columns and labels:
[1] = test system: Balb/c splenocytes (resting lymphocytes); assay: Lymphocyte viability (LcV) assay; assay type: cell-based, murine; settings: unstimulated Balb/c splenocytes, MTT
Summary of the method: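 Resting Balb/c splenocytes incubated with compounds under MLR-equivalent conditions, then pulsed overnight with MTT; formazan dissolved in isopropanol and absorbance read at 570 nm. Viability expressed as percent of untreated Balb/c control metabolic activity, with LC50 interpolated.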

[2] = test system: CB6F1 mice grafted with Balb/c splenocytes; assay: Graft vs host reaction (GVHR) splenomegaly assay; assay type: in vivo; settings: for alive day 8 / body weight change day 5 / body weight day 5 (g ± SD) / index (spleen wt. treated/spleen wt. syngenetic injection) / mean group spleen wt. normalized to day 8 body weight: QD 1-7, ip
Protocol: Three representative compounds didemnin M (38), O-pGlu-DB (37), and didemnin B (1)-showing high (37,38) or moderate (1) in vivo immunosuppressive activity were subsequently evaluated in a multidose assay (0.16,0.016, and 0.0016 mg/kg per injection; qd 1-7) for their in vivo immunosuppressive effects on the GVHR splenomegaly assay.
Three didemnins (didemnin B, didemnin M, and pGlu-didemnin B) were evaluated in a modified Simonsen splenomegaly assay. Briefly, an F1 hybrid host animal is grated with immunocompetent spleen cells from the parent strain. The index used to measure the success of the GVHR is splenomegaly (increased spleen weight due to cellular proliferation of grafted lymphocytes). An index>1.3 (graft index) is considered to be a successful graft rejection of the recipient animal. Immunosuppression is considered as a reduction of the graft index.
On day O, CB6F1 female mice, 4 weeks of age, were grated by intraperitoneal (ip) injection of 50×10^5 splenocytes from BALB/c female mice in high-glucose ([…]) Dulbecco's modified Eagles medium. A syngeneic control group (CB6F1 --CB6F1) was similarly prepared and served as the negative control. Grafted mice were divided into treatment groups containing six mice each. Groups were injected ip with test compound (dissolved in vehicle; 1% abs. EtOH in sterile phosphate-buffered saline) at one of three dose levels (0.16, 0.016, and 0.0016 mg/kg per injection) in a multidose assay, cyclophosphamide (200 mg/kg per injection) or vehicle on days 1-7 (qd 1-7). On day 8 all groups were sacrificed, spleens were excised, and a graft index was calculated for each group by the following formula: [formula]

Rift Valley fever virus = settings: mouse, in vivo; cited from earlier work
[3] = test system: concanavalin A-induced lymphoblasts (Con A splenocytes); assay: Lymphoblast viability (LbV) assay; settings: Con A-stimulated splenocytes (lymphoblasts), MTT
[4] = test system: murine splenocytes (Balb/c and C57B1/6); assay: Two-way mixed lymphocyte reaction (MLR) assay;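 further: proliferation read as tritiated thymidine incorporation into newly made DNA after an overnight pulse, expressed as percent of control activity, IC50 interpolated per compound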
[5] = 160 μg/kg per injection (highest dose)
[6] = Balb/c + C57B1/6 splenocytes, 96 h, [3H]thymidine
[7] = read-out: two-way mixed lymphocyte reaction (MLR) suppression MLR, IC50, Balb/c + C57B1/6 splenocytes, 96 h, [3H]thymidine

| SMILES | cytoxicity to lymphocytes LcV, LC50 [1] | cytoxicity to lymphocytes LcV, LC50 ([1]; highest concentration 10 μg/mL) | suppression of allogeneically induced splenomegaly response compared to control ([2]; 1.6 μg/kg per injection) | alive day 8 ([2]; 0.0016 mg/Kg/day) | body weight change day 5 ([2]; 0.0016 mg/Kg/day) | body weight day 5 (g ± SD) ([2]; 0.0016 mg/Kg/day) | index (spleen wt. treated/spleen wt. syngenetic injection) ([2]; 0.0016 mg/Kg/day) | mean group spleen wt. normalized to day 8 body weight ([2]; 0.0016 mg/Kg/day) | alive day 8 ([2]; 0.016 mg/Kg/day) | body weight change day 5 ([2]; 0.016 mg/Kg/day) | body weight day 5 (g ± SD) ([2]; 0.016 mg/Kg/day) | index (spleen wt. treated/spleen wt. syngenetic injection) ([2]; 0.016 mg/Kg/day) | mean group spleen wt. normalized to day 8 body weight ([2]; 0.016 mg/Kg/day) | alive day 8 ([2]; 0.16 mg/Kg/day) | body weight change day 5 ([2]; 0.16 mg/Kg/day) | body weight day 5 (g ± SD) ([2]; 0.16 mg/Kg/day) | index (spleen wt. treated/spleen wt. syngenetic injection) ([2]; 0.16 mg/Kg/day) | mean group spleen wt. normalized to day 8 body weight ([2]; 0.16 mg/Kg/day) | cytotoxicity to lymphocytes LbV, LC50 [3] | two-way mixed lymphocyte reaction (MLR) suppression MLR, IC50 [4, 6] | further results |
| --- | --- | --- | --- | --- | --- | --- | --- | --- | --- | --- | --- | --- | --- | --- | --- | --- | --- | --- | --- | --- | --- |
| CC[C@H](C)[C@H]1NC(=O)[C@@H](NC(=O)[C@@H](CC(C)C)N(C)C(=O)[C@@H]2CCCN2C(=O)C(C)O)[C@@H](C)OC(=O)[C@H](Cc2ccc(OC)cc2)N(C)C(=O)[C@@H]2CCCN2C(=O)[C@H](CC(C)C)NC(=O)[C@@H](C)C(=O)[C@H](C(C)C)OC(=O)C[C@@H]1O (stereo partly drawn) [Compound 1, didemnin B] | 6.34 µM | 7.00 µg/mL | not effective | 100% | 1.0 g | 18.4 ± 0.8 g | 1.91 | 6.1 | 100% | 1.0 g | 18.2 ± 0.7 g | 1.33 | 4.2 | 100% | -1.4 g | 15.6 ± 1.6 g | 1.24 | 4.0 | 600 pM | 0.46 ng/mL | suppression of allogeneically induced splenomegaly response compared to control ([2]; 16 μg/kg per injection): 53%; suppression of allogeneically induced splenomegaly response compared to control ([2]; 160 μg/kg per injection): 66%; toxicity to the animals [2, 5]: neither was toxic; protected Rift Valley fever virus-infected mice (Rift Valley fever virus): 90%; pIC50 [4, 7]: 9.38 |
| CC[C@H](C)[C@H]1NC(=O)[C@@H](NC(=O)[C@@H](CC(C)C)N(C)C(=O)[C@@H]2CCCN2C(=O)[C@H](C)OC(=O)[C@@H]2CCC(=O)N2)[C@@H](C)OC(=O)[C@H](Cc2ccc(OC)cc2)N(C)C(=O)[C@@H]2CCCN2C(=O)[C@H](CC(C)C)NC(=O)[C@@H](C)C(=O)[C@H](C(C)C)OC(=O)C[C@@H]1O [Compound 37, O-Pyroglutamyldidemnin B] ([pGlu][Lac]P[dNMeL]T[X1]LP[NMeY](Me); ester 5-C) | > 8.20 µM | > 10 µg/mL | – | 100% | 0.4 g | 17.4 ± 1.7 g | 1.63 | 5.2 | 100% | 0.8 g | 17.2 ± 1.5 g | 1.76 | 5.6 | 100% | -0.6 g | 15.2 ± 1.2 g | 1.32 | 4.2 | 79 pM | 0.007 ng/mL | suppression of allogeneically induced splenomegaly response compared to control ([2]; 160 μg/kg per injection): 54%; toxicity to the animals [2, 5]: neither was toxic; pIC50 ([4]; read-out: MLR IC50): 11.28; pIC50 [4, 7]: 11.28 |
| CC[C@H](C)[C@H]1NC(=O)[C@@H](NC(=O)[C@@H](CC(C)C)N(C)C(=O)[C@@H]2CCCN2C(=O)[C@H](C)OC(=O)[C@H](CCC(N)=O)NC(=O)[C@@H]2CCC(=O)N2)[C@@H](C)OC(=O)[C@H](Cc2ccc(OC)cc2)N(C)C(=O)[C@@H]2CCCN2C(=O)[C@H](CC(C)C)NC(=O)[C@@H](C)C(=O)[C@H](C(C)C)OC(=O)C[C@@H]1O [Compound 38, Didemnin M] ([pGlu]Q[Lac]P[dNMeL]T[X1]LP[NMeY](Me); ester 6-C) | > 7.41 µM | > 10 µg/mL | 61% | 100% | 1.4 g | 17.2 ± 1.2 g | 1.27 | 4.1 | 100% | -0.2 g | 17.8 ± 0.7 g | 1.38 | 4.4 | 100% | 1.0 g | 16.4 ± 1.0 g | 1.54 | 4.9 | 250 pM | 0.001 ng/mL | toxicity to the animals ([2]; 16 and 160 μg/kg): not toxic |
